# Assay results: PMC12175890 (Science Advances, 2025)
# Biological target: T1, BdPAPT-CD (Babesia duncani, UniProt A0AAD9PLN9)
# T1 sequence (A0AAD9PLN9 301-734): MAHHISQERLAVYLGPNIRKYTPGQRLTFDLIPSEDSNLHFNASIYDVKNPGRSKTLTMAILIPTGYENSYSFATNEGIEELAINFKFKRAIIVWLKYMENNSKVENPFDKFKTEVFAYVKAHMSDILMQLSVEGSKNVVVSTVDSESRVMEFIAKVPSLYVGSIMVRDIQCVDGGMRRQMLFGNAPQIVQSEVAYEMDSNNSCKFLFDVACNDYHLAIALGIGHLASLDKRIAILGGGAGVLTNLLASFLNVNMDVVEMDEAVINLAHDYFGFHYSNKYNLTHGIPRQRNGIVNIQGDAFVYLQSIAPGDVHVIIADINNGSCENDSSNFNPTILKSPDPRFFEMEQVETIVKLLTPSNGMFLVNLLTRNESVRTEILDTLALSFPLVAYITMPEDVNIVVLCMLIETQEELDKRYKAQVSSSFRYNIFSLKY
# Assay: TLC of spermidine formation
# Format: biochemical
# Details: 0.1 mM dcSAM, 0.1 mM putrescine, 37 °C, potassium phosphate pH 7.5
compound,measurement,value
NCCCCN [PUT],TLC of spermidine formation,efficient conversion of PUT to SPD by BdPAPT-Cterm and its CD
